Results on one compound are retold here after ChEMBL document CHEMBL3870324, “Asnovolins A-G, Spiromeroterpenoids Isolated from the Fungus Aspergillus novofumigatus, and Suppression of Fibronectin Expression by Asnovolin E” (J Nat Prod, 2016).

Assay [1] is filed under the species Homo sapiens. Kind of assay: Inhibition of fibronectin expression in HNDF after 24 hrs by Western blot analysis. Type of assay: functional. (In general: In western blotting, separated proteins are transferred to a membrane and probed.)
Assay [2] is filed under the species Homo sapiens. Briefly: Inhibition of fibronectin expression in HNDF at 25 uM after 24 hrs by Western blot analysis relative to control. Type of assay: functional.

As a reminder, the inhibition is the percentage by which the read-out fell short of the control.

For the compound `C=C(C)[C@@H]1CC[C@H](C)[C@@]2(C[C@@]3(C)C(=C(C)C(=O)[C@@H](C(=O)OC)[C@@H]3C)O2)[C@@]1(C)CCC(=O)OC`, the figures for the inhibition entry in the assay filed under Homo sapiens [1] and in the assay filed under Homo sapiens [2] were “Dose-dependent effect” and 87%, respectively.
